Measured values as given in PubChem BioAssay (NCI).
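Test compounds were applied to cells in 96-well plates for 48 hours at 5 doses. At the GI50, growth is halved. The concentration for full growth arrest is given as TGI.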

Assays:
Assay in all cases: NCI anticancer screen, dose series, 48 h
OVCAR-3 ovarian = test system: OVCAR-3 ovarian
NCI-H460 lung = test system: NCI-H460 lung
CAKI-1 renal = test system: CAKI-1 renal
DLD-1 colon = test system: DLD-1 colon
HL-60(TB) leukemia = test system: HL-60(TB) leukemia
XF 498 CNS = test system: XF 498 CNS
KM12 colon = test system: KM12 colon
KM20L2 colon = test system: KM20L2 colon
MOLT-4 leukemia = test system: MOLT-4 leukemia
DMS 273 small cell lung = test system: DMS 273 small cell lung
UACC-257 melanoma = test system: UACC-257 melanoma
HCT-15 colon = test system: HCT-15 colon
HOP-18 NSCLC = test system: HOP-18 NSCLC
TK-10 renal = test system: TK-10 renal
HCC-2998 colon = test system: HCC-2998 colon
HOP-92 NSCLC = test system: HOP-92 NSCLC
SNB-78 CNS = test system: SNB-78 CNS
SF-539 CNS = test system: SF-539 CNS
M19-MEL melanoma = test system: M19-MEL melanoma
SNB-75 CNS = test system: SNB-75 CNS
U251 CNS = test system: U251 CNS
HCT-116 colon = test system: HCT-116 colon
RXF 393 renal = test system: RXF 393 renal
ACHN renal = test system: ACHN renal
MALME-3M melanoma = test system: MALME-3M melanoma
CCRF-CEM leukemia = test system: CCRF-CEM leukemia
UACC-62 melanoma = test system: UACC-62 melanoma
SK-MEL-28 melanoma = test system: SK-MEL-28 melanoma
K-562 leukemia = test system: K-562 leukemia
IGROV1 ovarian = test system: IGROV1 ovarian
SK-OV-3 ovarian = test system: SK-OV-3 ovarian
A549 NSCLC = test system: A549 NSCLC
NCI-H23 lung = test system: NCI-H23 lung
SF-295 CNS = test system: SF-295 CNS
OVCAR-4 ovarian = test system: OVCAR-4 ovarian
786-0 renal = test system: 786-0 renal
LOX IMVI melanoma = test system: LOX IMVI melanoma
SF-268 CNS = test system: SF-268 CNS
NCI-H522 lung = test system: NCI-H522 lung
SK-MEL-2 melanoma = test system: SK-MEL-2 melanoma
A498 renal = test system: A498 renal
LXFL 529 NSCLC = test system: LXFL 529 NSCLC
SW-620 colon = test system: SW-620 colon
SNB-19 CNS = test system: SNB-19 CNS
SR leukemia = test system: SR leukemia
EKVX NSCLC = test system: EKVX NSCLC
NCI-H226 lung = test system: NCI-H226 lung
RPMI-8226 leukemia = test system: RPMI-8226 leukemia
M14 melanoma = test system: M14 melanoma
HT29 colon = test system: HT29 colon
SN12C renal = test system: SN12C renal
COLO 205 colon = test system: COLO 205 colon
UO-31 renal = test system: UO-31 renal
OVCAR-8 ovarian = test system: OVCAR-8 ovarian
SK-MEL-5 melanoma = test system: SK-MEL-5 melanoma
OVCAR-5 ovarian = test system: OVCAR-5 ovarian
DMS 114 small cell lung = test system: DMS 114 small cell lung
HOP-62 NSCLC = test system: HOP-62 NSCLC

## COc1ccc2c(c1)C(=O)Cc1ccccc1CC2
OVCAR-3 ovarian
  TGI: > 100 µM
NCI-H460 lung
  TGI: > 100 µM
CAKI-1 renal
  TGI: > 100 µM
DLD-1 colon
  TGI: > 100 µM
HL-60(TB) leukemia
  TGI: > 100 µM
XF 498 CNS
  TGI: > 100 µM
KM12 colon
  TGI: > 100 µM
KM20L2 colon
  TGI: > 100 µM
MOLT-4 leukemia
  TGI: > 100 µM
DMS 273 small cell lung
  TGI: > 100 µM
UACC-257 melanoma
  TGI: > 100 µM
HCT-15 colon
  TGI: > 100 µM
HOP-18 NSCLC
  TGI: > 100 µM
TK-10 renal
  TGI: > 100 µM
HCC-2998 colon
  TGI: > 100 µM
HOP-92 NSCLC
  TGI: > 100 µM
SNB-78 CNS
  TGI: > 100 µM
SF-539 CNS
  TGI: > 100 µM
M19-MEL melanoma
  TGI: > 100 µM
SNB-75 CNS
  TGI: > 100 µM
U251 CNS
  TGI: > 100 µM
HCT-116 colon
  TGI: > 100 µM
RXF 393 renal
  TGI: > 100 µM
ACHN renal
  TGI: > 100 µM
MALME-3M melanoma
  TGI: > 100 µM
CCRF-CEM leukemia
  TGI: > 100 µM
UACC-62 melanoma
  TGI: > 100 µM
SK-MEL-28 melanoma
  TGI: > 100 µM
K-562 leukemia
  TGI: > 100 µM
IGROV1 ovarian
  TGI: > 100 µM
SK-OV-3 ovarian
  TGI: > 100 µM
A549 NSCLC
  TGI: > 100 µM
NCI-H23 lung
  TGI: > 100 µM
SF-295 CNS
  TGI: > 100 µM
OVCAR-4 ovarian
  TGI: > 100 µM
786-0 renal
  TGI: > 100 µM
LOX IMVI melanoma
  TGI: > 100 µM
SF-268 CNS
  TGI: > 100 µM
NCI-H522 lung
  TGI: > 100 µM
SK-MEL-2 melanoma
  TGI: > 100 µM
A498 renal
  TGI: > 100 µM
LXFL 529 NSCLC
  TGI: > 100 µM
SW-620 colon
  TGI: > 100 µM
SNB-19 CNS
  TGI: > 100 µM
SR leukemia
  TGI: > 100 µM
EKVX NSCLC
  TGI: > 100 µM
NCI-H226 lung
  TGI: > 100 µM
RPMI-8226 leukemia
  TGI: > 100 µM
M14 melanoma
  TGI: > 100 µM
HT29 colon
  TGI: > 100 µM
SN12C renal
  TGI: > 100 µM
COLO 205 colon
  TGI: > 100 µM
UO-31 renal
  TGI: > 100 µM
OVCAR-8 ovarian
  TGI: > 100 µM
SK-MEL-5 melanoma
  TGI: > 100 µM
OVCAR-5 ovarian
  TGI: > 100 µM
DMS 114 small cell lung
  TGI: > 100 µM

## [Cl-].[Rh+3].c1cnc2c(c1)ccc1cccnc12.c1cnc2c(c1)ccc1cccnc12.c1cnc2c(c1)ccc1cccnc12
OVCAR-3 ovarian
  TGI: > 100 µM
NCI-H460 lung
  TGI: > 100 µM
HL-60(TB) leukemia
  TGI: > 100 µM
KM12 colon
  TGI: > 100 µM
KM20L2 colon
  GI50: > 100 µM
  TGI: > 100 µM
MOLT-4 leukemia
  TGI: > 100 µM
UACC-257 melanoma
  TGI: 92.5 µM
HCT-15 colon
  TGI: > 100 µM
HCC-2998 colon
  TGI: > 100 µM
HOP-92 NSCLC
  TGI: > 100 µM
SNB-78 CNS
  GI50: > 100 µM
  TGI: > 100 µM
SF-539 CNS
  TGI: > 100 µM
SNB-75 CNS
  TGI: > 100 µM
U251 CNS
  TGI: > 100 µM
HCT-116 colon
  TGI: > 100 µM
ACHN renal
  TGI: > 100 µM
MALME-3M melanoma
  TGI: > 100 µM
CCRF-CEM leukemia
  TGI: > 100 µM
UACC-62 melanoma
  TGI: > 100 µM
K-562 leukemia
  TGI: > 100 µM
IGROV1 ovarian
  TGI: > 100 µM
SK-OV-3 ovarian
  TGI: > 100 µM
A549 NSCLC
  TGI: > 100 µM
NCI-H23 lung
  TGI: > 100 µM
SF-295 CNS
  TGI: > 100 µM
OVCAR-4 ovarian
  TGI: > 100 µM
786-0 renal
  TGI: > 100 µM
LOX IMVI melanoma
  TGI: > 100 µM
NCI-H522 lung
  TGI: > 100 µM
SK-MEL-2 melanoma
  TGI: > 100 µM
LXFL 529 NSCLC
  GI50: > 100 µM
  TGI: > 100 µM
SW-620 colon
  TGI: > 100 µM
SR leukemia
  TGI: > 100 µM
EKVX NSCLC
  TGI: > 100 µM
M14 melanoma
  TGI: 29 µM
HT29 colon
  TGI: > 100 µM
SN12C renal
  TGI: > 100 µM
UO-31 renal
  TGI: > 100 µM
OVCAR-8 ovarian
  TGI: > 100 µM
SK-MEL-5 melanoma
  TGI: > 100 µM
OVCAR-5 ovarian
  TGI: > 100 µM
HOP-62 NSCLC
  TGI: > 100 µM
